# Where “and” joins values, the source holds several entries; their conditions need not be identical. Equal values may be shown once. Calls of active or inactive are those of the source.
# Key:
# Nonstructural protein 1 = Nonstructural protein 1 (Influenza A virus, UniProt Q194T2); assay type: functional, Influenza A virus (A/California/07/2009(H1N1))
# [1] = target: T1, Ubiquitin-conjugating enzyme E2 N (Homo sapiens, UniProt P61088); assay type: functional;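 note: Dose-response confirmation in a TR-FRET assay detecting UBC13-driven polyubiquitin chain formation, inhibition measured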
# T1 sequence (P61088 whole entry): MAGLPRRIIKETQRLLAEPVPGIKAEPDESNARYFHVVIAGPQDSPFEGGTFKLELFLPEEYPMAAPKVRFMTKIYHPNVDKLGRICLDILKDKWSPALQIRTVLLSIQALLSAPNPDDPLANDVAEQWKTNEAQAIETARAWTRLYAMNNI
# [2] = THP-1 cell cytotoxicity, dose response, cytotoxicity control for Vif-APOBEC3G degradation inhibitor project, THP-1 cells (AID 1117359); assay type: functional; conditions: Human immunodeficiency virus 1, THP-1
# Streptococcus = experiment: Group A Streptococcus viability loss, dose response, counter-screen for streptokinase expression inhibitor project, luminescence, BacTiterGlo (AID 1915); assay type: functional, organism-based;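 note: potency for reduction of bacterial viability or growth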
# [3] = cytotoxicity toward NIH3T3 fibroblasts, dose response, counter-screen, cell-based, ATP luminescence, mouse fibroblasts (AID 2010); assay type: functional;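 note: cells exposed to compound for about 90 hours before reading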
# [4] = Luminescence Cell-Based Dose Response HTS to Identify Activators of Luciferase Translation or Activity in H4 […] Cells. [Related pubchem assays: 1829 (Project Summary), 1814 (Primary HTS)]; assay type: functional
# [5] = system: Streptococcus sp. 'group A'; experiment: growth inhibition of control SK(-) GAS strain, dose response, counter-screen for streptokinase expression inhibitor project, luminescence, kanamycin, BacTiterGlo, confirmation (AID 1900); assay type: functional, organism-based
# [6] = inhibitors of intracellular T. cruzi replication, confirmation, NIH3T3 host cells, beta-gal luminescence (AID 2044); assay type: functional, cell-based;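 note: intracellular parasites grown in NIH/3T3 mouse fibroblasts as host cells; luminescent beta-galactosidase reporter signal from transgenic T. cruzi replicating inside host cells; inhibitors lower the luminescence signal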
# H4 = experiment: Luminescence Cell-Based Dose Response HTS to Identify Activators of 5'UTR Stem-Loop Driven Prion Protein mRNA Translation in H4 Neuroglioblastoma Cells. [Related pubchem assays: 1829 (Project Summary), 1814 (Primary HTS)]; assay type: functional; conditions: Homo sapiens
# Streptokinase A = target: T2, Streptokinase A (Streptococcus pyogenes serotype M1, UniProt P10520); experiment: S. pyogenes streptokinase expression inhibitors, potency, dose response, plasminogen activation absorbance, OD405 (AID 1914); assay type: functional, Streptococcus pyogenes M1 GAS;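 note: secreted streptokinase activity via plasminogen activation per viability signal from cell pellet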
# T2 sequence (P10520 whole entry): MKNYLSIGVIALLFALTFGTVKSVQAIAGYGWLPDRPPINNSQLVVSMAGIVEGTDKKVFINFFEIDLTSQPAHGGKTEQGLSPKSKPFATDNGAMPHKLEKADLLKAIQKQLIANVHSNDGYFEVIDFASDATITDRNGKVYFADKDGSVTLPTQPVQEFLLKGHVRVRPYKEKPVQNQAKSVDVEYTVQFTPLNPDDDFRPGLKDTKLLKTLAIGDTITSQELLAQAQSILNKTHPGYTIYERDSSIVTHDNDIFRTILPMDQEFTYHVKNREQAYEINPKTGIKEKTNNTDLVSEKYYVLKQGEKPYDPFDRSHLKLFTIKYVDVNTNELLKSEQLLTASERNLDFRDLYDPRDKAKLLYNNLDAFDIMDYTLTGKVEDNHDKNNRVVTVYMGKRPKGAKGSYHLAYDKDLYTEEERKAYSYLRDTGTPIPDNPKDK
# Protein RecA = target: T3, Protein RecA (Mycobacterium tuberculosis, UniProt P9WHJ3); experiment: Fluorescence Cell-Free Homogeneous Dose Retest to Identify Inhibitors of RecA-Intein Splicing Activity. [Related pubchem assays (depositor defined):AID2097, AID2223, AID489010, AID492950]; assay type: functional
# T3 sequence (P9WHJ3 whole entry): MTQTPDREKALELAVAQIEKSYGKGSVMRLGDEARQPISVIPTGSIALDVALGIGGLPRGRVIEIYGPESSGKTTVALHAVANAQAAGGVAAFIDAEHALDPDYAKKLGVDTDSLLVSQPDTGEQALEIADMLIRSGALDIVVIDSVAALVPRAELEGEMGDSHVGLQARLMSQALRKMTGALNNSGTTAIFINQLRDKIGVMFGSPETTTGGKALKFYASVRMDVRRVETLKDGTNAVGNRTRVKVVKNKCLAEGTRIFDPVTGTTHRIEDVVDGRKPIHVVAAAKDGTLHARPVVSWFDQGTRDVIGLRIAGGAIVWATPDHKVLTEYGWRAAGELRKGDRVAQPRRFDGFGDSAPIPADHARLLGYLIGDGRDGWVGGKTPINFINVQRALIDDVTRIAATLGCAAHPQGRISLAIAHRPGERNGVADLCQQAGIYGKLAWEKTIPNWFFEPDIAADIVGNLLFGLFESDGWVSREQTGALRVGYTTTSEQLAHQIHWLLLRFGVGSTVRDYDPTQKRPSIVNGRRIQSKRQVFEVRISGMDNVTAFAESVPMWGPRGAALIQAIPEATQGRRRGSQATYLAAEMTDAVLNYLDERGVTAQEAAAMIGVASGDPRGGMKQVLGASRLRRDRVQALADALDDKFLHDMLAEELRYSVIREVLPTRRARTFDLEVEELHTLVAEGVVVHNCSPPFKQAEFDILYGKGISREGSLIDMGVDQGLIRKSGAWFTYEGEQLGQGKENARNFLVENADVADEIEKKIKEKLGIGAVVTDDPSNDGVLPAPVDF
# Leucine aminopeptidase = target: T4, Leucine aminopeptidase (Plasmodium falciparum 3D7, UniProt Q8IL11); experiment: P. falciparum M17LAP inhibitors, primary screen, biochemical, fluorogenic H-Leu-NHMec substrate, 1536-well (AID 1619); assay type: functional
# T4 sequence (Q8IL11 whole entry): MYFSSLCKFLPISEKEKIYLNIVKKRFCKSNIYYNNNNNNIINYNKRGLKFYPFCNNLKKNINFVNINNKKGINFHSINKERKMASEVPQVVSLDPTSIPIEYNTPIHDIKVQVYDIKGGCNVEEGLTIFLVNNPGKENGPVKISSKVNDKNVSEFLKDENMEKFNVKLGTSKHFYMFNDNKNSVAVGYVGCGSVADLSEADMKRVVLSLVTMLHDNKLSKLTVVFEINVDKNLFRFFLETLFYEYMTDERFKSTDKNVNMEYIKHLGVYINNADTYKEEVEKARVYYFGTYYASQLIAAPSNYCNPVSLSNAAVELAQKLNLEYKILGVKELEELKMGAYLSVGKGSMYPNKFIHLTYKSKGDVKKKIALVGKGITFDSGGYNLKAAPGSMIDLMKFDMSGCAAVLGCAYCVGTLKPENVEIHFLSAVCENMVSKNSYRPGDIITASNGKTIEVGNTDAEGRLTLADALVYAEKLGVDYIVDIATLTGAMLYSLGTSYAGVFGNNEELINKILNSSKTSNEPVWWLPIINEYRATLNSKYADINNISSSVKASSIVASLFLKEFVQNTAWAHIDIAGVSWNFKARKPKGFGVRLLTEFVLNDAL
# [7] = target: T5, Replicative DNA helicase DnaB (Mycobacterium tuberculosis, UniProt P9WMR3); experiment: DnaB intein splicing inhibitors, dose response, biochemical, cell-free fluorescence (AID 449749); assay type: functional
# T5 sequence (P9WMR3 whole entry): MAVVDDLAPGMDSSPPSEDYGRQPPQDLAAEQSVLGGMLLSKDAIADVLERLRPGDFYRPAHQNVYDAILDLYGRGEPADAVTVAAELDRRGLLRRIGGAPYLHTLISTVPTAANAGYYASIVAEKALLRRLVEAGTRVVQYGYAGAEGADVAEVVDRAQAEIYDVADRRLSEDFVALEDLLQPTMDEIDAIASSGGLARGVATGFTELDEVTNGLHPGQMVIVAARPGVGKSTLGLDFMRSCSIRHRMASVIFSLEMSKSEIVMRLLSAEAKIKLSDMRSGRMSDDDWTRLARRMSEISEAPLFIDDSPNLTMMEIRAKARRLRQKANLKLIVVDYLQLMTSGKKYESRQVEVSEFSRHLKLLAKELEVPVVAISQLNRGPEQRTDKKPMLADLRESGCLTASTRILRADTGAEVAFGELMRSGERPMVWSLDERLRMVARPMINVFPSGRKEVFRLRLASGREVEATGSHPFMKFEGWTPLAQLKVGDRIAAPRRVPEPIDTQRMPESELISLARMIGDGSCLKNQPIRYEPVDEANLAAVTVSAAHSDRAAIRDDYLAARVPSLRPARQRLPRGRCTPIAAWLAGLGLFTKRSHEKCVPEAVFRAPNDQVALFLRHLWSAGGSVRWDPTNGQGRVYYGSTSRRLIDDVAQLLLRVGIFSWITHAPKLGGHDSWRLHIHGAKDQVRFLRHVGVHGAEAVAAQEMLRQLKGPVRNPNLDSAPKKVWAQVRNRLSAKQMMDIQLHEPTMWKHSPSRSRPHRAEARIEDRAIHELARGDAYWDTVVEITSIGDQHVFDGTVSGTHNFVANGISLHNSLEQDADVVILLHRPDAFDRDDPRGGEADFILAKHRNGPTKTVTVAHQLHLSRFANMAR
# Cytochrome P450 2C9 = Cytochrome P450 2C9 (Homo sapiens, UniProt P11712)
# Cytochrome P450 1A2 = target: T6, Cytochrome P450 1A2 (Homo sapiens, UniProt P05177);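 note: PubChem cytochrome P450 panel assay, CYP1A2 panel member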
# T6 sequence (P05177 whole entry): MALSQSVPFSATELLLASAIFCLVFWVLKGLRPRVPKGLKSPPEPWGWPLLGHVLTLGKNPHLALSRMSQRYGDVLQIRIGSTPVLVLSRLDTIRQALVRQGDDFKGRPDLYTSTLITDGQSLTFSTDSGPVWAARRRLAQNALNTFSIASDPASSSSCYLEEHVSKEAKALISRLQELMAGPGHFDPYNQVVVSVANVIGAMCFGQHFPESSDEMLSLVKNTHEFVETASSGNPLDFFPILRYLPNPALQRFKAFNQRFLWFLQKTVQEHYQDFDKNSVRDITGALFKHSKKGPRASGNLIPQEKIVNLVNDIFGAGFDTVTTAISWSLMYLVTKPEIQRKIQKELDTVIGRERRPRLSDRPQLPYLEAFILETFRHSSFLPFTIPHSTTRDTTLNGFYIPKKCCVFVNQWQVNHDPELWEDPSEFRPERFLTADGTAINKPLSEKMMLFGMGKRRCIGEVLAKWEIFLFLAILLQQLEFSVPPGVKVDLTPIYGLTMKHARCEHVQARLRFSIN
# [8] = growth suppression of PTEN-null colon cells, dose response, cell-based, HCT116 PTEN knockout (AID 1047); assay type: functional;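 note: HCT116 colon tumor cells with PTEN knocked out; cells exposed to compound for 60 hours before readout; potency for loss of cell viability measured by luminescence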
# [9] = inhibitors of SNCA 5'UTR-driven reporter translation, confirmation, H4 neuroglioma cells, luminescence (AID 1988); assay type: functional, cell-based
# [10] = growth suppression of beta-catenin-knockout colon cells, dose response, cell-based, HCT116, human colon tumor (AID 1045); assay type: functional;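 note: HCT116 colon tumor cells with beta catenin knocked out; cells exposed to compound for 60 hours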
# [11] = inhibitors of firefly luciferase expression or activity, dose response, H4 neuroglioma cells, luminescence (AID 1990); assay type: functional, cell-based
# [12] = cytotoxicity toward DRD oncogenic fibroblasts, dose response, cell-based, non-viral oncogenic, luminescence (AID 1934); assay type: functional; conditions: Homo sapiens
# BJ [13] = experiment: cytotoxicity toward BJ-TERT-LT-ST fibroblasts, dose response, cell-based, RAS-independent, luminescence (AID 1935); assay type: functional; conditions: Homo sapiens;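 note: BJ fibroblasts immortalized with TERT plus LT and ST oncogenes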
# BJ [14] = experiment: cytotoxicity toward BJ-TERT fibroblasts, dose response, cell-based, RAS-independent, luminescence (AID 1933); assay type: functional; conditions: Homo sapiens
# [15] = Luminescence Cell-Based Dose Response HTS to Identify Inhibitors of 5'UTR Stem-Loop Driven Prion Protein mRNA Translation in H4 Neuroglioblastoma Cells. [Related pubchem assays: 1827 (Project Summary), 1813 (Primary HTS)]; assay type: functional
# BJ [16] = experiment: cells; assay type: functional, cell-based; conditions: Homo sapiens
# Chain of Nonstructural protein 1 (Q194T2 whole entry): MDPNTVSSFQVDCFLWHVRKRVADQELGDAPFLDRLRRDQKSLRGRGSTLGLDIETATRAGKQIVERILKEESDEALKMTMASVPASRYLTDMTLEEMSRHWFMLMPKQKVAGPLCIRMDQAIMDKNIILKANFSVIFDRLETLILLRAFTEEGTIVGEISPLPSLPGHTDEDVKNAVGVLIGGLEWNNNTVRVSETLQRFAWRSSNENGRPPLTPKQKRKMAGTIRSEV
# Chain of Cytochrome P450 2C9 (P11712 whole entry): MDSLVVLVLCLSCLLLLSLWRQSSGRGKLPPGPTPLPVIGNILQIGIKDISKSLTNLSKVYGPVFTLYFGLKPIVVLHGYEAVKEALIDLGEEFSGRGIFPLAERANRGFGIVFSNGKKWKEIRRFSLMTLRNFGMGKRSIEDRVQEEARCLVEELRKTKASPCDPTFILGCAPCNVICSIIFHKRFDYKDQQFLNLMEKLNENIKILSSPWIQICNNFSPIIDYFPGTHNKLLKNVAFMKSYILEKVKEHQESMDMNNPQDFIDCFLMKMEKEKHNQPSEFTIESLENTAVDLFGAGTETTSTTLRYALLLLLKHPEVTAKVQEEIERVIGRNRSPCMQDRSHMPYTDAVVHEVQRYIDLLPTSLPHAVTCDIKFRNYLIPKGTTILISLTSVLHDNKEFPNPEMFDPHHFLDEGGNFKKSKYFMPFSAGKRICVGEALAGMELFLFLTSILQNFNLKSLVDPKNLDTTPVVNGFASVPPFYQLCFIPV
compound,measurement,setting,value
CC1CCN(C(=O)c2ccc3c(c2NCCO)C(=O)c2ccccc2C3=O)CC1,IC50,Nonstructural protein 1,24.5 µM (active)
Cc1cccc(N(C(=O)c2snc(C(N)=O)c2N)C(C(=O)NC2CCCC2)c2ccco2)c1 (stereo not given),IC50,[1],> 20 µM (inactive)
COc1ccc2nc(N3CCN(C(=O)c4ccc5ncsc5c4)CC3)sc2c1,CC50,[2],> 40 µM (active)
Nc1nc(-c2ccccn2)nc(N)c1Cc1ccccc1F,EC50,Streptococcus,> 150 µM (not active)
same,EC50,[3],> 60 µM (not active)
same,EC50,[4],5.85 µM (active)
same,EC50,[5],11 µM (active)
same,EC50,[6],2.52 µM (active)
same,EC50,H4,0.414 µM (active)
same,IC50,Nonstructural protein 1,6.51 µM (active)
same,EC50,Streptokinase A,> 150 µM (not active)
Cc1ccc(NC(=O)CSc2nc3ccccc3c(=O)n2CCCC(=O)NCCCN2CCOCC2)cc1C,IC50,[1],> 20 µM (inactive)
O=C(c1ccco1)N1CCN(C(=O)c2cn(-c3ccccc3)nc2-c2ccccc2)CC1,CC50,[2],32.8 µM (active)
O=C(Cc1cc(O)n[nH]1)N/N=C/C(Cl)=C/c1ccccc1,EC50,Protein RecA,1.02 µM (active) and 2.32 µM (active)
same,IC50,Leucine aminopeptidase,90.6 µM (active)
same,AC50,[7],1.95 µM (active) and 2.24 µM (active)
CCC(=O)NC(c1cc(Cl)c2ccccc2c1O)C(C)C (stereo not given),IC50,[1],> 20 µM (inactive)
Cc1cc(NC(=O)CCN2C(=O)C3C4CCC(C4)C3C2=O)c(C)cc1Br (stereo not given),AC50,Cytochrome P450 2C9,inconclusive
same,AC50,Cytochrome P450 1A2,15.8 µM (inconclusive)
same,IC50,Leucine aminopeptidase,13.7 µM (active)
CCN1CCN(Cc2ccc(NC(=O)c3cc(NC(=O)c4cc(-c5ccc(OC)cc5)n[nH]4)cc(OC)c3)cc2C(F)(F)F)CC1,IC50,[1],> 20 µM (inactive)
same,EC50,Streptokinase A,> 150 µM (not active)
Cc1ccc(C(=O)/C=C/c2cc(C#N)n(C)c2C)cc1,CC50,[2],> 40 µM (active)
COc1ccccc1NC(=O)c1c(/N=C/c2cccc([N+](=O)[O-])c2)cnn1C,IC50,[1],> 20 µM (inactive)
COc1ccccc1N1CCN(C(=O)c2ccoc2C)CC1,CC50,[2],> 40 µM (active)
CN(CC(=O)O)Cc1nc2ccccc2[nH]1,IC50,Nonstructural protein 1,11.6 µM (active)
COc1cc(/C=C(/C#N)c2nc3ccccc3[nH]2)ccc1OCC(=O)Nc1ccccc1C(C)C,EC50,[8],19.6 µM (active)
same,EC50,[9],0.56 µM (active)
same,EC50,[10],3.91 µM (active)
same,EC50,[11],1.4 µM (active)
same,EC50,[12],2.81 µM (active)
same,EC50,BJ [13],5.76 µM (inconclusive)
same,EC50,BJ [14],2.97 µM (active)
same,EC50,[15],3.34 µM (active)
same,EC50,BJ [16],3.15 µM (active)
